Laboratory results from US7026309B2, “Fused bicyclic pyridine derivative as tachykinin receptor antagonist” (Kyorin Pharmaceutical Co., Ltd., priority 2002, dated 2006).

Assays:
NK1 receptor = target: T1, NK1 receptor (Cavia porcellus, UniProt P30547); assay: Test for NK1 receptor antagonist: substance P concentration-response in isolated guinea pig ileum, Schild analysis; assay type: cell-based; conditions: substance P as agonist, 10 min pretreatment, method of Schild
T1 construct: from tissue; host or cells: isolated guinea pig ileum
Procedure: (1) Test for NK1 Receptor Antagonist
The method used was according to the method proposed by S. Dion et al. (Dion et al., Life Sciences 41(1987): 2269), to which minor modifications were made.
Guinea pigs were stunned by a blow on the head and were exsanguinated from the carotid artery and ilea were isolated. The ileum was mounted in an organ bath containing Tyrode's solution which was maintained at 32° C. and gased with 95% O2 and 5% CO2. The ileum was subjected to a resting tension of 1-gram and allowed to equilibrate for 20 minutes before the experiment was started. As a control, a concentration-response curve for substance P in the absence of any of test compounds was used. The NK1 receptor antagonist activity of each test compound was determined by a concentration-response curve obtained by pretreating at least three concentrations of the test compound for 10 minutes and subsequently applying substance P in a cumulative manner. The Kb values were determined according to the method of Schild and the results are shown in Table 1 (Schild Brit. J. Pharmacol. 14(1959): 48).
The composition of the Tyrode's solution was as follows: NaCl=136.9, KCl=2.7, CaCl2.2H2O=2.5, MgCl2.6H2O=1.0, NaH2PO4.2H2O=0.4, NaHCO3=11.9, glucose=11.1 (mmol/L).

[1] = tested on: effective bladder capacity; assay: Cystometry test on guinea pigs with cut spinal cord; assay type: in vivo; conditions: guinea pig
Text: (2) Cystometry Test on Guinea Pigs
The method used was according to the method proposed by JS. Peterson et al. (Peterson J S. et al., J. Pharmacol. Methods 21(1989): 231), to which minor modifications were made.
Guinea pigs were anesthetized with halothane and the tenth thoracic spinal cord was cut in each animal. Subsequently, both ureters were ligated and were cut on the kidney-side. Polyethylene catheters were inserted into the bladder to provide an injection pathway for physiological saline and a pathway for the measurement of intravesical pressure. Each animal was restricted in a Ballman cage and was left for more than 2 hours. Subsequently, room-temperature saline was injected through the bladder catheter into the bladder at a rate of 6 mL/hr to conduct a cystometry test. Once the effective bladder capacity was stabilized, a test compound was intravenously administered into the jugular vein. The effective bladder capacity is defined as the volume of saline injected from one urination to the next. The effect of each test compound was determined as the increase in the average bladder volume, which was determined based on the average bladder volume measured 30 minutes prior to the administration of the test compound and the average bladder volume measured every 30 minutes after the administration of the test compound.

T1 sequence (P30547 whole entry): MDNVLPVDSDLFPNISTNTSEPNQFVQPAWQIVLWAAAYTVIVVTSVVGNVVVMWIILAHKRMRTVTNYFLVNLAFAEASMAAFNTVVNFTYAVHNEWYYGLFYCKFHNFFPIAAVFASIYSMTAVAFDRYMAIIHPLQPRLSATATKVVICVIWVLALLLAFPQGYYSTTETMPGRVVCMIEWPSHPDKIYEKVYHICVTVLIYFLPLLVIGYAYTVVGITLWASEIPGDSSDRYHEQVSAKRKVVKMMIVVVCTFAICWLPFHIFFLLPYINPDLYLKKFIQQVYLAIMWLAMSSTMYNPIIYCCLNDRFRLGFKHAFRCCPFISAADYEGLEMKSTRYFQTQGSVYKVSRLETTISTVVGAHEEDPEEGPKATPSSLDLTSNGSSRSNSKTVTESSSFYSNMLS

SMILES	Kb (NK1 receptor) [nM]	Increase in bladder capacity (%) ([1]; 0.3 mg/kg i.v.)	Increase in bladder capacity (%) ([1]; 1 mg/kg i.v.)	Increase in bladder capacity (%) ([1]; 3 mg/kg i.v.)
CC(=O)N1CCN(c2cc(-c3ccc(F)cc3)c3c(n2)OCCCN(Cc2cc(C(F)(F)F)cc(C(F)(F)F)c2)C3=O)CC1 [Example 2, 9-(4-acetylpiperazine-1-yl)-5-[3,5-bis(trifluoromethyl)benzyl]-7-(4-fluorophenyl)-6-oxo-2,3,4,5-tetrahydro-6H-pyrido[2,3-b][1,5]oxazocine]	0.0847	–	–	–
CC(=O)N1CCCN(c2cc(-c3ccccc3C)c3c(n2)OCCCN(Cc2cc(C(F)(F)F)cc(C(F)(F)F)c2)C3=O)CC1 [Example 6, 9-(4-acetylhomopiperazine-1-yl)-5-[3,5-bis(trifluoromethyl)benzyl]-7-(2-methylphenyl)-6-oxo-2,3,4,5-tetrahydro-6H-pyrido[2,3-b][1,5]oxazocine]	0.294	–	–	–
CC(=O)N1CCN(c2cc(-c3ccccc3C)c3c(n2)OCCCN(Cc2cc(C(F)(F)F)cc(C(F)(F)F)c2)C3=O)CC1 [Example 1, 9-(4-acetylpiperazine-1-yl)-5-[3,5-bis(trifluoromethyl)benzyl]-7-(2-methylphenyl)-6-oxo-2,3,4,5-tetrahydro-6H-pyrido[2,3-b][1,5]oxazocine]	0.0888	32.2	–	–
Cc1ccc(-c2c3n(c(=O)c4ncccc24)CC[C@@H](C)CN(Cc2cc(C(F)(F)F)cc(C(F)(F)F)c2)C3=O)cc1 [TAK-637]	0.269	12.0	23.8	20.5
